How the values were obtained:
Format in all cases: in vivo
[1] = system: diabetic KKAy mice; experiment: Oral glucose tolerance test in diabetic KKAy mice, intraperitoneal treatment; parameters: Serum glucose level: unit not given here; conditions: for Serum glucose level: oral glucose tolerance test
Description: (§1) The diabteic KKAy mice were divided into four groups consisting of 6 animals per group. Animals in the control group were intraperitoneally administered 0.1 mL saline. Animals in the second, third, and fourth groups were similarly administered with 100, 200, 400 nmole/kg des-aspartate-angiotensin I, respectively. Treatment with saline and des-aspartate-angiotensin I was carried out daily for 4 weeks. Following this, animals were fasted overnight for 16 hours and oral glucose tolerance test was performed as follows: blood was withdrawn from the orbital sinus for blood glucose determination (time of withdrawal was designated as 0 time), animals were then orally administered glucose (2 g/kg), and blood was withdrawn at 30, 60 and 120 min for blood glucose determination.
as §1, with “diabetic” for “diabteic”, “respectively in 0.1 ml of PBS.” for “respectively.”, “determination. The blood was allowed to clot and blood glucose was measured as serum glucose using a commercial glucose kit from Thermo Electron Corporation, Australia.” for “determination.”

[2] = system: diabetic GK rats; experiment: Oral glucose tolerance test in diabetic GK rats, oral treatment; conditions: 400 or 600 nmole/kg oral daily; for hypoglycaemic action (30 min oral glucose tolerance test): 6 weeks of treatment
Description: The experiment was similarly carried as for KKAy mice. Control animals were administered (by gavage) 0.2 mL of water and groups 1 and 2 animals were similarly administered 400 and 600 nmole/kg des-aspartate-angiotensin I in 0.2 mL water, respectively, for a period 8 weeks. Oral glucose tolerance test (determined at 30 min) was carried out after 4 and 6 weeks of treatment. […] Data obtained after 8 week of treatment are given in another figure, FIG. 4.
Diabetic GK rats were divided into three groups, consisting of six animals in each group. Animals in groups 1 and 2 were administered, by gavage, one of the following: 400 or 600 nmole/kg of des-aspartate-angiotensin I in a volume of 0.2 mL water daily for up to 8 weeks. Control animals in group 3 were similarly administered 0.2 mL water. […] Animals were treated for a further 2 weeks and a full oral glucose tolerance test was performed thereafter.

[3] = system: GLUT4; experiment: Insulin-induced translocation of GLUT4 to plasma membrane in skeletal muscle of diabetic GK rats; conditions: oral treatment for 9 weeks; insulin 0.5 U/kg i.p., 30 minutes; Western blot
From the text: Upper panel: Representative Western blot of plasma membrane GLUT4 in skeletal muscle of des-aspartate-angiotensin I treated and non treated diabetic GK rats. Lower panel: Relative (to the non insulin stimulated samples) levels of plasma membrane GLUT4 in skeletal muscle of des-aspartate-angiotensin I treated and control diabetic GK rats.
The diabetic GK rats described in EXAMPLE 9 were similarly treated for another week. At 9 weeks of treatment, animals were fasted overnight and half the animals in each group were intraperitoneally administered with PBS and the other half with insulin (0.5 U/kg). After 30 minutes, the animals were sacrificed by cervical dislocation. Hind limb skeletal muscles were rapidly excised and frozen in liquid nitrogen. Muscle samples were stored at −80° C. until used. The hindlimb muscles were subsequently thawed over an ice pack and plasma membranes were prepared as described by Dombrowaski et al. Thirty μg of protein from the 25% interface of the discontinued sucrose gradient was subjected to SDS-PAGE, transferred to PVDF sheets and incubated with anti-GLUT4 polyclonal primary antibody (1:800), washed and followed by incubation with anti-goat secondary antibody (1:10,000). The bands were detected at 49 kDa. […]

[4] = system: diabetic KKAy mice; experiment: Oral glucose tolerance test in diabetic KKAy mice, oral treatment; parameters: Serum glucose level: unit not given here; conditions: for Serum glucose level: oral glucose tolerance test
Description: A dose-range finder experiment to determine the hypoglycaemic dose for orally administered des-aspartate-angiotensin I was also carried out. In this experiment, the animals in each of the three treatment groups of 7 diabetic KKAy mice were orally administered (by gavage) 200, 400, and 600 nmole/kg/day des-aspartate-angiotensin I in volume of 0.1 mL, respectively. Animals in the control group were similarly administered 0.1 mL water. The treatment period was 4 weeks. Oral glucose tolerance test was carried out as described in Example 5, except that blood was sampled at 0 and 30 min.
In this experiment, the animals in each of the three treatment groups of 7 diabetic KKAy mice were orally administered (by gavage) 200, 400, and 600 nmole/kg/day des-aspartate-angiotensin I in volume of 0.1 mL water, respectively. Animals in the control group were similarly administered 0.1 mL water. The treatment period was 4 weeks. Oral glucose tolerance test was carried out as described in EXAMPLE 7, except that blood was sampled at 0 and 30 min.

[5] = system: serum insulin; experiment: Serum insulin level of diabetic GK rats (ELISA); conditions: 600 nmole/kg oral, 8 weeks, serum at 30 min of the oral glucose tolerance test, vs control
Description: Serum from 8 weeks treated animals (as described in EXAMPLE 9) were assayed for insulin concentration by the “Ultra Senstive Rat Insulin ELISA kit” (Crystal Chem. Inc., IL, USA). The values were from serum taken at 30 min of the oral glucose tolerance test.
The diabetic GK rats described in EXAMPLE 9 were similarly treated for another week. At 9 weeks of treatment, animals were fasted overnight and half the animals in each group were intraperitoneally administered with PBS and the other half with insulin (0.5 U/kg). After 30 minutes, the animals were sacrificed by cervical dislocation. Hind limb skeletal muscles were rapidly excised and frozen in liquid nitrogen. Muscle samples were stored at −80° C. until used. The hindlimb muscles were subsequently thawed over an ice pack and plasma membranes were prepared as described by Dombrowaski et al. Thirty μg of protein from the 25% interface of the discontinued sucrose gradient was subjected to SDS-PAGE, transferred to PVDF sheets and incubated with anti-GLUT4 polyclonal primary antibody (1:800), washed and followed by incubation with anti-goat secondary antibody (1:10,000). The bands were detected at 49 kDa. […] As insulin resistance is the hallmark of diabetes, it is concluded that the des-aspartate-angiotensin I exerts marked hypoglycaemic action in diabetic GK rats by overcoming insulin resistance in these animals.

## des-aspartate-angiotensin I (RVYIHPFHL; Angiotensin-1; UniProt P01019 26-34, looked up, fragment) [endogenous angiotensin peptide derived from angiotensin I by a specific aminopeptidase; purchased from Bachem]
[1]; 100 nmole/kg i.p. daily for 4 weeks, 0 min
  Serum glucose level: 7.9 ± 0.9
[1]; 100 nmole/kg i.p. daily for 4 weeks, 30 min
  Serum glucose level: 21.2 ± 1.6
[1]; 100 nmole/kg i.p. daily for 4 weeks, 60 min
  Serum glucose level: 13.4 ± 1.3
[1]; 100 nmole/kg i.p. daily for 4 weeks, 120 min
  Serum glucose level: 9.9 ± 0.5
[1]; 200 nmole/kg i.p. daily for 4 weeks, 0 min
  Serum glucose level: 6.9 ± 0.9
[1]; 200 nmole/kg i.p. daily for 4 weeks, 30 min
  Serum glucose level: 16.0 ± 1.4
[1]; 200 nmole/kg i.p. daily for 4 weeks, 60 min
  Serum glucose level: 14.5 ± 0.9
[1]; 200 nmole/kg i.p. daily for 4 weeks, 120 min
  Serum glucose level: 8.7 ± 1.2
[1]; 400 nmole/kg i.p. daily for 4 weeks, 0 min
  Serum glucose level: 6.5 ± 0.6
[1]; 400 nmole/kg i.p. daily for 4 weeks, 30 min
  Serum glucose level: 15.4 ± 1.6
[1]; 400 nmole/kg i.p. daily for 4 weeks, 60 min
  Serum glucose level: 13.0 ± 1.1
[1]; 400 nmole/kg i.p. daily for 4 weeks, 120 min
  Serum glucose level: 8.8 ± 0.6
[1]; doses of 200 and 400 nmole/kg/day i.p. for 4 weeks, vs control
  blood glucose level at 30 and 60 min of the oral glucose tolerance test: significantly lowered
[2]
  hypoglycaemic action (30 min oral glucose tolerance test): significant hypoglycaemic action was detected
[2]; listed as DAA-1
  hypoglycaemic action (30 min oral glucose tolerance test): exerts hypoglycaemic action
[2]; 8 weeks of treatment
  hypoglycaemic action (full oral glucose tolerance test): significantly expressed
[3]
  insulin-induced translocation of GLUT4 to the plasma membrane in skeletal muscle: significantly enhances
[4]; 200 nmole/kg/day oral (gavage) for 4 weeks, 0 min
  Serum glucose level: 8.9 ± 1.0
[4]; 200 nmole/kg/day oral (gavage) for 4 weeks, 30 min
  Serum glucose level: 37.7 ± 2.6
[4]; 400 nmole/kg/day oral (gavage) for 4 weeks, 0 min
  Serum glucose level: 9.1 ± 1.6
[4]; 400 nmole/kg/day oral (gavage) for 4 weeks, 30 min
  Serum glucose level: 26.0 ± 3.6
[4]; 600 nmole/kg/day oral (gavage) for 4 weeks, 0 min
  Serum glucose level: 8.9 ± 0.7
[4]; 600 nmole/kg/day oral (gavage) for 4 weeks, 30 min
  Serum glucose level: 17.5 ± 1.9
[4]; oral dose of 600 nmole/kg/day for 4 weeks, KKAy mice
  hypoglycaemic action: significant hypoglycaemic action
[5]
  serum level of insulin: not significantly affected
[5]; listed as des-aspartate-angiotesnin I
  serum level of insulin: no significant difference
